# From patent US7037502B2, “Peptide with the amino acid sequence of KVLDGQDP having anti-inflammatory properties” (priority 2001, dated 2006)
# “Also recorded” adds a separate entry of the source.
# Experiments:
# [1] = tested on: eosinophil infiltration of conjunctiva; test: Allergic conjunctivitis to ragweed in guinea pig: histology, eosinophil count in conjunctiva; assay type: in vivo, Hartley female guinea pig; conditions: for Statistical evaluation of eosinophil count (Mann-Whitney test), P compared to Dexamethasone / Statistical evaluation of eosinophil count (Mann-Whitney test), P compared to Livostine / Statistical evaluation of eosinophil count (Mann-Whitney test), P compared to No treatment group: eosinophils in three fields of conjunctiva (×400), 12 eyes per group, eye drops
# Method: The peptides of the present invention were analyzed in experimental model of allergic conjunctivitis to ragweed (giant ragweed; Ambrosia trifida) in guinea pig. Hartley strain of guinea pig was selected according to previous reports of conjunctival anaphylaxis (Calonge M., et al., Acta Ophthalmol 68; 470–476, 1990) and females were chosen based on the sex dimorphism of ocular mucosal immunity with the protective role of male hormones (Saruya S., et al., Act Soc Ophthalmol Jap 72; 833–845, 1968). The conjunctival redness and edema are main signs of seasonal allergic conjunctivitis and eosionphil infiltration is the hallmark of the conjunctival histology in patients with allergic conjunctivitis (Abelson M B., et al., Arch Ophthalmol. 101; 555–556, 1983; Butrus S I., et al., Int. Ophthalmol. Clin. 28; 324–328, 1988)
# 86 Hartley female guinea pigs, 200–250 g were housed in the animal facilities of the Asan Institute for Life Sciences (Korea), given guinea pig chow and water ad libitum, and cared for in accordance with the Declaration of Helsinki and the National Institute of Health Guide to the Care and Use of the Laboratory Animals (Korea).
# On day 15, immunized guinea pigs were divided 14 groups, 6 for each group. 11 anti-inflammatory peptides including new recombinants, dexamethasone eye drop (Maxidex, 0.1% dexamethasone, Alcon) and anti-histamine eye drop (Livostin, levocabastine, Janssen) were used for 13 groups, and no treatment for one group. Normal controls were employed as 6 non-immunized and non-treated guinea pigs. […] All the procedures were followed experimental model of allergic conjunctivitis described by Merayo-Lloves et al (Experimental model of allergic conjunctivitis to ragweed in guinea pig. Curr. Eye Res. 14; 487–494, 1995).
# Anti-inflammatory peptides were resolved in sterile saline (100 μmol/40 μl concentration). All peptides and dexamethasone eye solutions were challenged 3 hour prior to the last pollen application on day 15, 10 minutes after pollen application, and 4 times thereafter at the 3 hour interval.
# The orbits were excentrated after the animals were killed with CO2 asphyxia, and specimens were prepared for light microscopic examination. Sectioned specimens were stained with hematoxylin-eosin.
# Eosinophils in the standardized fields of conjunctival epithelium, the immediate subepithelial, and the stroma were counted in three non-consecutive fields (magnification ×400) for each treatment in each experiment (12 eyes in each group).
# [2] = tested on: allergic conjunctivitis to ragweed (Ambrosia trifida); test: Allergic conjunctivitis to ragweed in guinea pig: clinical scores (conjunctival edema and redness); assay type: in vivo, Hartley female guinea pig; conditions: for Statistical evaluation of clinical scores (Mann-Whitney test), P compared to Dexamethasone / Statistical evaluation of clinical scores (Mann-Whitney test), P compared to Livostine / Statistical evaluation of clinical scores (Mann-Whitney test), P compared to No treatment group: conjunctival edema and redness score 0-4+, 20 min after allergen challenge, 12 eyes per group, eye drops; for Clinical signs (conjunctival redness and edema scores), result in words: n=12, P<0.01, SD<10%, Mann-Whitney test
# Method: The peptides of the present invention were analyzed in experimental model of allergic conjunctivitis to ragweed (giant ragweed; Ambrosia trifida) in guinea pig. Hartley strain of guinea pig was selected according to previous reports of conjunctival anaphylaxis (Calonge M., et al., Acta Ophthalmol 68; 470–476, 1990) and females were chosen based on the sex dimorphism of ocular mucosal immunity with the protective role of male hormones (Saruya S., et al., Act Soc Ophthalmol Jap 72; 833–845, 1968). The conjunctival redness and edema are main signs of seasonal allergic conjunctivitis and eosionphil infiltration is the hallmark of the conjunctival histology in patients with allergic conjunctivitis (Abelson M B., et al., Arch Ophthalmol. 101; 555–556, 1983; Butrus S I., et al., Int. Ophthalmol. Clin. 28; 324–328, 1988) 86 Hartley female guinea pigs, 200–250 g were housed in the animal facilities of the Asan Institute for Life Sciences (Korea), given guinea pig chow and water ad libitum, and cared for in accordance with the Declaration of Helsinki and the National Institute of Health Guide to the Care and Use of the Laboratory Animals (Korea). […] On day 15, immunized guinea pigs were divided 14 groups, 6 for each group. 11 anti-inflammatory peptides including new recombinants, dexamethasone eye drop (Maxidex, 0.1% dexamethasone, Alcon) and anti-histamine eye drop (Livostin, levocabastine, Janssen) were used for 13 groups, and no treatment for one group. Normal controls were employed as 6 non-immunized and non-treated guinea pigs. […] All the procedures were followed experimental model of allergic conjunctivitis described by Merayo-Lloves et al (Experimental model of allergic conjunctivitis to ragweed in guinea pig. Curr. Eye Res. 14; 487–494, 1995). Anti-inflammatory peptides were resolved in sterile saline (100 μmol/40 μl concentration). All peptides and dexamethasone eye solutions were challenged 3 hour prior to the last pollen application on day 15, 10 minutes after pollen application, and 4 times thereafter at the 3 hour interval. Conjunctival edema and redness were judged in room light and under an operating microscope (Zeiss, Germany). The evaluation was performed in a masked fashion at 20 min after allergen challenge and each clinical sign was scored on a scale 0–4+ (0 absent, 1+ minimal, 2+ mild, 3+ moderate, 4+ severe), adapted for guinea pig from previous report (Merayo-Lloves et al: Experimental model of allergic conjunctivitis to ragweed in guinea pig. Curr. Eye Res. 14; 487–494, 1995). Clinical scores of each group (12 eyes in each group) were analyzed.
# PLA2 = PLA2 (Sus scrofa, UniProt P00592); conditions: Miele et al., Nature 335, 726-730, 1988; cited from earlier work
# Chain of PLA2 (P00592 23-146): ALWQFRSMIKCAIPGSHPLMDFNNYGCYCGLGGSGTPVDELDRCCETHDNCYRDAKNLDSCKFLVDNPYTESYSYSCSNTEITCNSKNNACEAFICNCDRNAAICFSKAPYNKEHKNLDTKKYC
Molecule,"Anti-inflammatory activity, overall conclusion in words ([1]; allergic conjunctivitis model in guinea pig, summary of Example 2, listed as SEQ ID NO:3)","Statistical evaluation of eosinophil count (Mann-Whitney test), P compared to Dexamethasone [1]","Statistical evaluation of eosinophil count (Mann-Whitney test), P compared to Livostine [1]","Statistical evaluation of eosinophil count (Mann-Whitney test), P compared to No treatment group [1]","Histological signs (eosinophil infiltration), result in words ([1]; n=12, P<0.01, SD<10%, Mann-Whitney test)","Statistical evaluation of clinical scores (Mann-Whitney test), P compared to Dexamethasone [2]","Statistical evaluation of clinical scores (Mann-Whitney test), P compared to Livostine [2]","Statistical evaluation of clinical scores (Mann-Whitney test), P compared to No treatment group [2]","Clinical signs (conjunctival redness and edema scores), result in words [2]","PLA2 inhibitor activity, in words (PLA2)"
"DPVKG [Peptide E2, synthetic peptide of the invention]",excellent anti-inflammatory activity in comparison with other known peptide sequences; also recorded: much higher activity than the steroidal anti-inflammatory dexamethasone,0.028,0.060,0.000,statistically significant difference from other groups,0.050,0.039,0.000,statistically significant difference from other groups,–
"HDMNKVLDL [Peptide A2, known peptide, antiflammin]",–,0.000,0.000,0.161,–,0.002,0.003,0.382,–,–
PVKG [Peptide E1],–,0.000,0.000,0.002,–,0.017,0.012,0.001,statistically significant difference from other groups,–
"SHLRKVFDK [Peptide A1, known peptide, antiflammin]",–,0.004,0.006,0.000,–,0.007,0.009,0.003,statistically significant difference from other groups,–
RKLMEI (PKLMEI) [Peptide P1],–,0.000,0.000,0.002,–,0.001,0.003,0.009,statistically significant difference from other groups,–
"C[C@@H]1C[C@H]2[C@@H]3CCC4=CC(=O)C=C[C@]4(C)[C@@]3(F)[C@@H](O)C[C@]2(C)[C@@]1(O)C(=O)CO [Dexamethasone, dexamethasone]",–,–,0.932,0.000,–,–,–,0.000,–,–
"KVLD [Peptide A4, core tetrapeptide of antiflammins]",–,0.028,0.045,0.001,–,0.000,0.000,0.082,–,inactive
GQDP [Peptide E3],–,0.007,0.000,0.001,–,0.000,0.002,0.016,–,–
"MQMKKVLDS [Peptide A3, known peptide, antiflammin]",–,0.000,0.000,0.007,–,0.089,0.043,0.000,statistically significant difference from other groups,–
GTLAKKLT [Peptide P2],–,0.000,0.000,0.004,–,0.000,0.000,0.279,–,–
